target: CREB-binding protein (Homo sapiens, UniProt Q92793); assay: In Vitro Enzyme Inhibition Assay-CREBBP Inhibition: Determination of the IC50 for the CREBBP inhibitors disclosed herein was performed as follows: CREBBP was cloned and expressed in E. Coli as His-tag protein and purified by Nickel affinity and gel-filtration chromatography. The protein was further characterized as a single band with the correct molecular weight by SDS-PAGE. CREBBP binding and inhibition was assessed by monitoring the interaction of biotinylated H4-tetraacetyl peptide (AnaSpec, H4K5/8/12/16(Ac), biotin-labeled) with the target using the AlphaScreen technology (Perkin Elmer). In a 384-well ProxiPlate CREBBP (50 nM final) was combined with peptide (20 nM final) in 50 mM HEPES (pH 7.3), 10 mM NaCl, 0.25 mM TCEP, 0.1% (w/v) BSA, and 0.005% (w/v) Brij-35 either in the presence of DMSO (final 0.4% DMSO) or compound dilution series in DMSO. After 20-minute incubation at room temperature, Alpha streptavidin donor beads and Nickel Chelate acceptor beads were added to a final concentration of 5 μg/mL. After two hours of equilibration, plates were read on an Envision instrument and the IC50 was calculated using a four parameter non-linear curve fit.The ability of the compounds disclosed herein to inhibit CBP activity was quantified and the respective IC50 value was determined.
Sequence (Q92793 whole entry): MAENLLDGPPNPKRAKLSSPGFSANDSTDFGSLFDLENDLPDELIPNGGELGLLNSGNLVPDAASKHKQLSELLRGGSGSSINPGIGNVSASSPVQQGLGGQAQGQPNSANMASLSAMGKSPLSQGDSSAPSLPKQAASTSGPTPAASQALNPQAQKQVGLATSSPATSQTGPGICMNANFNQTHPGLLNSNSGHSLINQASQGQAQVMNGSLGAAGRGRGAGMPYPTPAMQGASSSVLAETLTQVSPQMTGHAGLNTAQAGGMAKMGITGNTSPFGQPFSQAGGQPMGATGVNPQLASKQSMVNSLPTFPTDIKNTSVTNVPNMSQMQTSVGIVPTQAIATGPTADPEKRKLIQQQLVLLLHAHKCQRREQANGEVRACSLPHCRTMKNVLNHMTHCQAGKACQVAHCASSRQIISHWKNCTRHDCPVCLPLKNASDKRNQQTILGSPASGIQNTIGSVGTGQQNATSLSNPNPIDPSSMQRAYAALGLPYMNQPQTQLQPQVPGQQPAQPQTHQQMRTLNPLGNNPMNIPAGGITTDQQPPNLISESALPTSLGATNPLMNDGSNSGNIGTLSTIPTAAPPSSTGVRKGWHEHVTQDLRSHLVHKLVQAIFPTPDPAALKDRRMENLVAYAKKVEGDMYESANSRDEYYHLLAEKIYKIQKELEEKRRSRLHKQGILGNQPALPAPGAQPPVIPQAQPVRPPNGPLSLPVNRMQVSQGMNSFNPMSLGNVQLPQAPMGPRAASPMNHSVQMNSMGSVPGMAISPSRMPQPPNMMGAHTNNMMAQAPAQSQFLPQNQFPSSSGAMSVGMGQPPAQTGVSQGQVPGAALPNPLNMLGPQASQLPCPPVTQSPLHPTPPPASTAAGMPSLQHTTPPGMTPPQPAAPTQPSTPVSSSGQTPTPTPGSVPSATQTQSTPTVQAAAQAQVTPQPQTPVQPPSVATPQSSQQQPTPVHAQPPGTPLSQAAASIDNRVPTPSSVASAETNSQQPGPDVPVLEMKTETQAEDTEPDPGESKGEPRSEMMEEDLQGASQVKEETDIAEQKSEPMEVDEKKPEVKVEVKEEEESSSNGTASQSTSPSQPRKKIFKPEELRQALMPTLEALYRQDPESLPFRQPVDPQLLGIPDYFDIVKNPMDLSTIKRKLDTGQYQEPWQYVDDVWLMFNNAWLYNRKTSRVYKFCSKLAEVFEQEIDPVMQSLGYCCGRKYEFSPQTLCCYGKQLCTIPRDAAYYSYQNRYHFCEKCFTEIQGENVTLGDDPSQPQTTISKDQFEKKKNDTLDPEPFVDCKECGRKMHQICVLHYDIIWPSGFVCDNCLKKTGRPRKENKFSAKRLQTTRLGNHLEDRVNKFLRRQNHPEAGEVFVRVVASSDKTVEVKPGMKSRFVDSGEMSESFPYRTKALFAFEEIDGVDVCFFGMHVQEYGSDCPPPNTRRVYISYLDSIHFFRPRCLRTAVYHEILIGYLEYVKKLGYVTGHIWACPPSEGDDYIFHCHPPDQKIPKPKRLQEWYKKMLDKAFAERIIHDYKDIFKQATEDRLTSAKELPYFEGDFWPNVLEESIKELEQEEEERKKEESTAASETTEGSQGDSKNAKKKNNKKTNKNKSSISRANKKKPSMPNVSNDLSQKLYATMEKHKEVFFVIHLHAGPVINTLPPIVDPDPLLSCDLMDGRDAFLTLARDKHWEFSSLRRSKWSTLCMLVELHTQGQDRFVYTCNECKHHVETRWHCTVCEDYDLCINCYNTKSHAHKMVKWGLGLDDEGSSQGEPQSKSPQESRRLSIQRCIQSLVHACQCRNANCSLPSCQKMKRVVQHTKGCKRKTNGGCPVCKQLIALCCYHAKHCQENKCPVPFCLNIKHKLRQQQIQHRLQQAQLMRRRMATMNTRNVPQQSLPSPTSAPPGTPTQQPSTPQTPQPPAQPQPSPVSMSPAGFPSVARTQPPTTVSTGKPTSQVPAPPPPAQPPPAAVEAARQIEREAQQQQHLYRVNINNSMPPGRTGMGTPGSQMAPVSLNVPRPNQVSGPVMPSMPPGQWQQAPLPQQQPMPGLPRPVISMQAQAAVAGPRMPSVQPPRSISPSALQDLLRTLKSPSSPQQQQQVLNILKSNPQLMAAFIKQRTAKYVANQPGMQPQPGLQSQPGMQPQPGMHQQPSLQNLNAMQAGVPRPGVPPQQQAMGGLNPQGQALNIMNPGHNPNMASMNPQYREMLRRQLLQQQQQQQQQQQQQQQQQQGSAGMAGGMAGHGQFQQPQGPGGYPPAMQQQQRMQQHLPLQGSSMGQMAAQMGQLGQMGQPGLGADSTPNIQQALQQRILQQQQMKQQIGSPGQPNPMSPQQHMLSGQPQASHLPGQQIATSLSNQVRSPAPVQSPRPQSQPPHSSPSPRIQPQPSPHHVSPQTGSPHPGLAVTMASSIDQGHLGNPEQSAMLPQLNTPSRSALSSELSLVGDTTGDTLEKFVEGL

SMILES | IC50 [nM]
Cc1cccc(F)c1Oc1nc(NS(=O)(=O)CC2CC2)cc(-c2ccc(=O)n(C)c2)n1 | < 500
Cc1cccc(F)c1Oc1nc(NS(=O)(=O)CCC(F)(F)F)cc(-c2ccc(=O)n(C)c2)n1 | < 500
Cc1cccc(F)c1Oc1nc(NS(=O)(=O)CCC2CC2)cc(-c2ccc(=O)n(C)c2)n1 | < 500
CCNc1cc(-c2cc(C)c(=O)n(C)c2)nc(Oc2ccc(F)cc2F)n1 | < 500
CCCCS(=O)(=O)Nc1nc(Oc2c(C)cccc2C)nc(-c2cc(C)c(=O)n(C)c2)n1 | < 500

Further lines, results first:

IC50 [nM] | SMILES
< 500 | Cc1cccc(Cl)c1Oc1nc(NS(=O)(=O)C(C)C)cc(-c2cc(Cl)c(=O)n(C)c2)n1
< 500 | CCCCS(=O)(=O)Nc1cc(-c2cc(Cl)c(=O)n(C)c2)nc(Oc2c(C)cccc2Cl)n1

Reference: ChEMBL document CHEMBL5726465, “Therapeutic compounds” (2019)
